Measurements: patent publication US10597388B2, “Pyridazinone herbicides” (FMC CORPORATION, priority 2014, dated 2020)

Legend:
Format in all cases: in vivo
[1] = system: oat, wild (wild oat, Avena fatua); assay: Test C greenhouse herbicide test, postemergence
Procedure, shortened: (§1)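 Visual injury scores (0–100, where 100 means complete control) were assigned 13 to 15 d after postemergence application, by comparison with untreated plants. Treated seedlings stood 2 to 18 cm tall, at the 1- to 4-leaf stage.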

kochia (Kochia scoparia) [2] = assay: Test C greenhouse herbicide test, postemergence
Procedure, shortened: as §1

[3] = system: galium (catchweed bedstraw, Galium aparine); assay: Test A greenhouse herbicide test, postemergence; settings: for Plant response rating, Galium: 125 g ai/ha, 0 to 100 scale where 0 is no effect and 100 is complete control; for Galium plant response rating: 500 g ai/ha, 0 to 100 scale, 0 is no effect, 100 is complete control
Procedure, shortened: (§2)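 Pot-grown plants (loam soil/sand blend), 2–10 cm tall at the one- to two-leaf stage, received postemergence sprays of formulated test chemical. After about 10 d in the greenhouse, injury was rated visually against untreated controls on a 0 (no effect) to 100 (complete control) scale.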

[4] = system: blackgrass (Alopecurus myosuroides); assay: Test A greenhouse herbicide test, postemergence; settings: for Plant response rating, Blackgrass: 125 g ai/ha, 0 to 100 scale where 0 is no effect and 100 is complete control; for Blackgrass plant response rating: 500 g ai/ha, 0 to 100 scale, 0 is no effect, 100 is complete control
Procedure, shortened: as §2

[5] = system: oilseed rape (Brassica napus); assay: Test C greenhouse herbicide test, pre- and postemergence
Procedure, shortened: (§3)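 Visual ratings on a 0 to 100 scale (0 = no effect, 100 = complete control) versus untreated controls, scored 13–15 d after treatment. Soil-applied preemergence to seeded loam/sand; foliar postemergence to 1- to 4-leaf plants (2–18 cm) in peat-vermiculite mix; compounds formulated in solvent plus surfactant.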

[6] = system: crabgrass, large (large crabgrass, Digitaria sanguinalis); assay: as above
Procedure, shortened: as §3

[7] = system: pigweed (Amaranthus retroflexus); assay: Test A greenhouse herbicide test, pre- and postemergence
Procedure, shortened: (§4)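 Seeds in loam–sand blend received a preemergence directed soil spray; plants at 2–10 cm, one- to two-leaf stage, received postemergence sprays. Compounds in a non-phytotoxic solvent with surfactant. After about 10 d in a greenhouse, injury rated visually versus untreated controls on a 0–100 scale (100 = complete control).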

[8] = system: wheat (Triticum aestivum); assay: as above; settings: Postemergence; for Plant response rating, Wheat: 125 g ai/ha, 0 to 100 scale where 0 is no effect and 100 is complete control; for Wheat plant response rating: 500 g ai/ha, 0 to 100 scale, 0 is no effect, 100 is complete control
Procedure, shortened: as §4

[9] = system: ragweed (common ragweed, Ambrosia elatior); assay: as above
Procedure, shortened: as §4

[10] = system: barnyardgrass (Echinochloa crus-galli); assay: as above
Procedure, shortened: as §4

kochia (Kochia scoparia) [11] = assay: as above
Procedure, shortened: as §4

corn (Zea mays) = assay: as above; settings: Postemergence; for Plant response rating, Corn: 125 g ai/ha, 0 to 100 scale where 0 is no effect and 100 is complete control; for Corn plant response rating: 500 g ai/ha, 0 to 100 scale, 0 is no effect, 100 is complete control
Procedure, shortened: as §4

[12] = Postemergence, 31 g ai/ha, 0 to 100 scale (0 no effect, 100 complete control)
[13] = Postemergence, 125 g ai/ha, scale 0 to 100, 0 is no effect, 100 is complete control
[14] = Postemergence, 250 g ai/ha, scale 0 to 100, 0 no effect, 100 complete control, 13 to 15 d
[15] = postemergence, 62 g ai/ha, scale 0 to 100, 0 no effect, 100 complete control
[16] = Postemergence, 125 g ai/ha, 0 to 100 scale where 0 is no effect and 100 is complete control
[17] = Postemergence, 500 g ai/ha, 0 to 100 scale, 0 is no effect, 100 is complete control
[18] = Preemergence, 125 g ai/ha, 0 to 100 scale where 0 is no effect and 100 is complete control
[19] = Preemergence, 500 g ai/ha, 0 to 100 scale, 0 no effect, 100 complete control
[20] = Preemergence, 31 g ai/ha, scale 0 to 100, 0 is no effect, 100 is complete control
[21] = Preemergence, 62 g ai/ha, scale 0 to 100, 0 is no effect, 100 is complete control
[22] = Preemergence, 125 g ai/ha, scale 0 to 100, 0 is no effect, 100 is complete control
[23] = Preemergence, 250 g ai/ha, scale 0 to 100 (0 no effect, 100 complete control)

## Cc1cc(C)c2ccccc2c1-c1c(O)cnn(C)c1=O [Compound 51]
[1]; [12]
  Oat, Wild plant response rating: 0
[1]; [13]
  Plant response rating, Oat, Wild: 5
[1]; [14]
  Plant response rating, Oat, Wild: 10
[1]; [15]
  Oat, Wild plant response rating: 5
Kochia (Kochia scoparia) [2]; [12]
  Kochia plant response rating: 0
Kochia (Kochia scoparia) [2]; [13]
  Plant response rating, Kochia: 50
Kochia (Kochia scoparia) [2]; [14]
  Plant response rating, Kochia: 75
Kochia (Kochia scoparia) [2]; [15]
  Kochia plant response rating: 15
[3]
  Plant response rating, Galium: 90
  Galium plant response rating: 100
[4]
  Plant response rating, Blackgrass: 30
  Blackgrass plant response rating: 60
[5]; [12]
  Oilseed Rape plant response rating: 0
[5]; [13]
  Plant response rating, Oilseed Rape: 5
[5]; [14]
  Plant response rating, Oilseed Rape: 5
[5]; [15]
  Oilseed Rape plant response rating: 5
[6]; [12]
  Crabgrass, Large plant response rating: 0
[6]; [13]
  Plant response rating, Crabgrass, Large: 10
[6]; [14]
  Plant response rating, Crabgrass, Large: 10
[6]; [15]
  Crabgrass, Large plant response rating: 5
[7]; [16]
  Plant response rating, Pigweed: 70
[7]; [17]
  Pigweed plant response rating: 90
[7]; [18]
  Pigweed plant response rating: 70
[7]; [19]
  Plant response rating, Pigweed: 100
[8]
  Plant response rating, Wheat: 0
  Wheat plant response rating: 0
[9]; [16]
  Plant response rating, Ragweed: 70
[9]; [17]
  Ragweed plant response rating: 70
[9]; [18]
  Ragweed plant response rating: 30
[9]; [19]
  Plant response rating, Ragweed: 80
[10]; [16]
  Plant response rating, Barnyardgrass: 20
[10]; [17]
  Barnyardgrass plant response rating: 80
[10]; [18]
  Barnyardgrass plant response rating: 30
[10]; [19]
  Plant response rating, Barnyardgrass: 90
Kochia (Kochia scoparia) [11]; [16]
  Plant response rating, Kochia: 70
Kochia (Kochia scoparia) [11]; [17]
  Kochia plant response rating: 90
Kochia (Kochia scoparia) [11]; [18]
  Kochia plant response rating: 0
Kochia (Kochia scoparia) [11]; [19]
  Plant response rating, Kochia: 30
Corn (Zea mays)
  Plant response rating, Corn: 0
  Corn plant response rating: 0

## Cc1ccc(-c2c(O)c(Br)nn(C)c2=O)c2ccccc12 [Compound 52]
[1]; [12]
  Oat, Wild plant response rating: 0
[1]; [13]
  Plant response rating, Oat, Wild: 0
[1]; [14]
  Plant response rating, Oat, Wild: 0
[1]; [15]
  Oat, Wild plant response rating: 0
Kochia (Kochia scoparia) [2]; [12]
  Kochia plant response rating: 0
Kochia (Kochia scoparia) [2]; [13]
  Plant response rating, Kochia: 5
Kochia (Kochia scoparia) [2]; [14]
  Plant response rating, Kochia: 70
Kochia (Kochia scoparia) [2]; [15]
  Kochia plant response rating: 0
[3]
  Plant response rating, Galium: 100
  Galium plant response rating: 100
[4]
  Plant response rating, Blackgrass: 20
  Blackgrass plant response rating: 30
[5]; [12]
  Oilseed Rape plant response rating: 0
[5]; [13]
  Plant response rating, Oilseed Rape: 0
[5]; [14]
  Plant response rating, Oilseed Rape: 0
[5]; [15]
  Oilseed Rape plant response rating: 0
[6]; [12]
  Crabgrass, Large plant response rating: 0
[6]; [13]
  Plant response rating, Crabgrass, Large: 5
[6]; [14]
  Plant response rating, Crabgrass, Large: 10
[6]; [15]
  Crabgrass, Large plant response rating: 0
[7]; [16]
  Plant response rating, Pigweed: 10
[7]; [17]
  Pigweed plant response rating: 30
[7]; [18]
  Pigweed plant response rating: 10
[7]; [19]
  Plant response rating, Pigweed: 60
[8]
  Plant response rating, Wheat: 0
  Wheat plant response rating: 0
[9]; [16]
  Plant response rating, Ragweed: 90
[9]; [17]
  Ragweed plant response rating: 100
[9]; [18]
  Ragweed plant response rating: 20
[9]; [19]
  Plant response rating, Ragweed: 80
[10]; [16]
  Plant response rating, Barnyardgrass: 10
[10]; [17]
  Barnyardgrass plant response rating: 50
[10]; [18]
  Barnyardgrass plant response rating: 50
[10]; [19]
  Plant response rating, Barnyardgrass: 70
Kochia (Kochia scoparia) [11]; [16]
  Plant response rating, Kochia: 40
Kochia (Kochia scoparia) [11]; [17]
  Kochia plant response rating: 100
Kochia (Kochia scoparia) [11]; [18]
  Kochia plant response rating: 0
Kochia (Kochia scoparia) [11]; [19]
  Plant response rating, Kochia: 80
Corn (Zea mays)
  Plant response rating, Corn: 0
  Corn plant response rating: 20

## COc1nn(C)c(=O)c(-c2c(C)ccc3ccccc23)c1O [Compound 54]
[1]; [12]
  Oat, Wild plant response rating: 45
[1]; [13]
  Plant response rating, Oat, Wild: 60
[1]; [14]
  Plant response rating, Oat, Wild: 85
[1]; [15]
  Oat, Wild plant response rating: 50
Kochia (Kochia scoparia) [2]; [12]
  Kochia plant response rating: 50
Kochia (Kochia scoparia) [2]; [13]
  Plant response rating, Kochia: 90
Kochia (Kochia scoparia) [2]; [14]
  Plant response rating, Kochia: 95
Kochia (Kochia scoparia) [2]; [15]
  Kochia plant response rating: 90
[3]
  Plant response rating, Galium: 100
  Galium plant response rating: 100
[4]
  Plant response rating, Blackgrass: 20
  Blackgrass plant response rating: 40
[5]; [12]
  Oilseed Rape plant response rating: 70
[5]; [13]
  Plant response rating, Oilseed Rape: 40
[5]; [14]
  Plant response rating, Oilseed Rape: 70
[5]; [20]
  Plant response rating, Oilseed Rape: 70
[5]; [21]
  Plant response rating, Oilseed Rape: 90
[5]; [22]
  Plant response rating, Oilseed Rape: 90
[5]; [23]
  Oilseed Rape plant response rating: 100
[5]; [15]
  Oilseed Rape plant response rating: 80
[6]; [12]
  Crabgrass, Large plant response rating: 20
[6]; [13]
  Plant response rating, Crabgrass, Large: 35
[6]; [14]
  Plant response rating, Crabgrass, Large: 55
[6]; [20]
  Plant response rating, Crabgrass, Large: 40
[6]; [21]
  Plant response rating, Crabgrass, Large: 40
[6]; [22]
  Plant response rating, Crabgrass, Large: 75
[6]; [23]
  Crabgrass, Large plant response rating: 60
[6]; [15]
  Crabgrass, Large plant response rating: 25
[7]; [16]
  Plant response rating, Pigweed: 90
[7]; [17]
  Pigweed plant response rating: 100
[7]; [18]
  Pigweed plant response rating: 100
[7]; [19]
  Plant response rating, Pigweed: 100
[8]
  Plant response rating, Wheat: 20
  Wheat plant response rating: 20
[9]; [16]
  Plant response rating, Ragweed: 100
[9]; [17]
  Ragweed plant response rating: 100
[9]; [18]
  Ragweed plant response rating: 90
[9]; [19]
  Plant response rating, Ragweed: 100
[10]; [16]
  Plant response rating, Barnyardgrass: 30
[10]; [17]
  Barnyardgrass plant response rating: 90
[10]; [18]
  Barnyardgrass plant response rating: 40
[10]; [19]
  Plant response rating, Barnyardgrass: 90
Kochia (Kochia scoparia) [11]; [16]
  Plant response rating, Kochia: 100
Kochia (Kochia scoparia) [11]; [17]
  Kochia plant response rating: 100
Kochia (Kochia scoparia) [11]; [18]
  Kochia plant response rating: 50
Kochia (Kochia scoparia) [11]; [19]
  Plant response rating, Kochia: 100
Corn (Zea mays)
  Plant response rating, Corn: 20
  Corn plant response rating: 30

## Cc1ccc2ccccc2c1-c1c(O)cnn(C)c1=O [Compound 56]
[1]; [12]
  Oat, Wild plant response rating: 5
[1]; [13]
  Plant response rating, Oat, Wild: 20
[1]; [14]
  Plant response rating, Oat, Wild: 40
[1]; [15]
  Oat, Wild plant response rating: 10
Kochia (Kochia scoparia) [2]; [12]
  Kochia plant response rating: 70
Kochia (Kochia scoparia) [2]; [13]
  Plant response rating, Kochia: 90
Kochia (Kochia scoparia) [2]; [14]
  Plant response rating, Kochia: 100
Kochia (Kochia scoparia) [2]; [15]
  Kochia plant response rating: 90
[3]
  Plant response rating, Galium: 90
  Galium plant response rating: 100
[4]
  Plant response rating, Blackgrass: 30
  Blackgrass plant response rating: 50
[5]; [12]
  Oilseed Rape plant response rating: 0
[5]; [13]
  Plant response rating, Oilseed Rape: 0
[5]; [14]
  Plant response rating, Oilseed Rape: 0
[5]; [15]
  Oilseed Rape plant response rating: 0
[6]; [12]
  Crabgrass, Large plant response rating: 0
[6]; [13]
  Plant response rating, Crabgrass, Large: 5
[6]; [14]
  Plant response rating, Crabgrass, Large: 20
[6]; [15]
  Crabgrass, Large plant response rating: 5
[7]; [16]
  Plant response rating, Pigweed: 80
[7]; [17]
  Pigweed plant response rating: 90
[7]; [18]
  Pigweed plant response rating: 60
[7]; [19]
  Plant response rating, Pigweed: 100
[8]
  Plant response rating, Wheat: 10
  Wheat plant response rating: 50
[9]; [16]
  Plant response rating, Ragweed: 70
[9]; [17]
  Ragweed plant response rating: 90
[9]; [18]
  Ragweed plant response rating: 80
[9]; [19]
  Plant response rating, Ragweed: 90
[10]; [16]
  Plant response rating, Barnyardgrass: 10
[10]; [17]
  Barnyardgrass plant response rating: 60
[10]; [18]
  Barnyardgrass plant response rating: 10
[10]; [19]
  Plant response rating, Barnyardgrass: 50
Kochia (Kochia scoparia) [11]; [16]
  Plant response rating, Kochia: 90
Kochia (Kochia scoparia) [11]; [17]
  Kochia plant response rating: 100
Kochia (Kochia scoparia) [11]; [18]
  Kochia plant response rating: 40
Kochia (Kochia scoparia) [11]; [19]
  Plant response rating, Kochia: 90
Corn (Zea mays)
  Plant response rating, Corn: 0
  Corn plant response rating: 10
